Reference: patent US9073868B2, “Benzazepine derivatives useful as vasopressin antagonists” (Otsuka Pharmaceutical Co., Ltd., priority 2007, dated 2015)

Tests used:
[1] = Test Example 1: oral absorption in rats, serum concentrations of tolvaptan after oral suspension; format: in vivo; settings: male rats deprived of food about 18 hours, forced oral administration of suspension, 1 mg of tolvaptan per kg, Mean ± S.D. (n = 3 or 4)
Method: The compounds obtained in Examples 1, 50, and 52 were used as test compounds.
Each test compound, (Examples 1, 50, and 52) equivalent to 10 mg of tolvaptan, and hypromellose (125 mg) were suspended in 25 ml of water for injection in a porcelain mortar, to thereby obtain a suspension equivalent to 0.4 mg of tolvaptan per ml of suspension.
A spray-dried tolvaptan powder equivalent to 60 mg of tolvaptan, which was prepared in a similar manner to Example 3 of Japanese Unexamined Patent Publication No. 1999-21241, was suspended in 50 ml of water for injection in a porcelain mortar. This suspension was diluted three-fold with water for injection, preparing a suspension of spray-dried powder equivalent to 0.4 mg of tolvaptan per ml of suspension.
The following tests were conducted to examine the oral absorption features of each suspension. Male rats (body weight: about 180 g) that had been deprived of food for about 18 hours were used as test animals. The above suspensions were each administered by forced oral administration using a sonde for oral administration at a dose of 2.5 ml/kg of body weight, producing 1 mg of tolvaptan per kg of body weight. The blood samples were collected from the jugular vein under light diethyl ether anesthesia at the time of 0.5 hour, 1 hour, 2 hours, 4 hours, 6 hours, and 8 hours later after dosing. The serum concentrations of tolvaptan (ng/ml) were determined by using UPLC-MS/MS (Waters).
The average phaLmacokinetic parameters were calculated from the results.

[2] = Test Example 2: oral absorption in rats, serum concentrations of tolvaptan after oral solution or suspension; format: in vivo; settings: rat, male rats fasted about 18 hours, forced oral administration of suspension or solution, 1 mg of tolvaptan per kg, Mean ± S.D. (n = 4)
Method: The compounds obtained in Examples 74 was used as test compounds.
The test compound, (Examples 1) equivalent to 10 mg of tolvaptan, and hydroxypropylcellulose (5 mg) was dissolved in 25 ml of water for injection in a porcelain mortar, to thereby obtain a solution equivalent to 0.4 mg of tolvaptan per ml.
A spray-dried tolvaptan powder equivalent to 10 mg of tolvaptan was suspended in 25 ml of water for injection in a porcelain mortar, to obtain a suspension of spray-dried powder equivalent to 0.4 mg of tolvaptan per ml of suspension.
The following tests were conducted to examine the oral absorption features of each suspension and solution. Male rats (body weight: about 160 g) that had been fasted for about 18 hours were used as test animals. The above suspension or solution were each administered by forced oral administration using a sonde for oral administration at a dose of 2.5 ml/kg of body weight, producing 1 mg of tolvaptan per kg of body weight. The blood samples were collected from the jugular vein under light diethyl ether anesthesia at the time of 0.5 hour, 1 hour, 2 hours, 3 hours, 4 hours, 6 hours, 8 hours and 10 hours later after dosing. The serum concentrations of tolvaptan (ng/ml) were determined by using UPLC-MS/MS (Waters).
The average pharmacokinetic parameters were calculated from the results.

| SMILES | AUC∞ [1] [ng·h/mL] | Cmax [1] [ng/mL] | MRT∞ [1] [h] | Tmax [1] [h] | AUC(0-inf) ([1]; rat) [ng·h/mL] | MRT inf ([1]; rat) [h] | Cmax ([1]; rat, read-out: Cmax) [ng/mL] | Tmax ([1]; rat, read-out: Tmax) [h] | AUC(0-inf) [2] [ng·h/mL] | Cmax [2] [ng/mL] | MRT inf [2] [h] | Tmax [2] [h] |
| --- | --- | --- | --- | --- | --- | --- | --- | --- | --- | --- | --- | --- |
| Cc1ccccc1C(=O)Nc1ccc(C(=O)N2CCCC(OC(=O)CCC(=O)O)c3cc(Cl)ccc32)c(C)c1 (stereo not drawn) [Example 1, {7-Chloro-1-[2-methyl-4-(2-methyl-benzoylamino)-benzoyl]-2,3,4,5-tetrahydro-1H-benzo[b]azepin-5-yl} Succinate] | 96.1 ± 18.1 | 16.2 ± 4.8 | 4.45 ± 0.64 | 2.00 ± 0.00 |  |  |  |  |  |  |  |  |
| Cc1ccccc1C(=O)Nc1ccc(C(=O)N2CCCC(O)c3cc(Cl)ccc32)c(C)c1 (stereo not drawn) [Tolvaptan] |  |  |  |  | 80.9 ± 28.5 | 2.95 ± 0.35 | 26.4 ± 12.9 | 1.5 ± 0.58 | 92.4 ± 27 | 26.9 ± 11.6 | 2.96 ± 0.47 | 1 |
